Calls of active or inactive are those of the source. No cut-off for these calls is given here.
What was measured:
[1] = Half life in fasted Sprague-Dawley rat at 25 mg/kg, po; format: ADME, organism-based; settings: in vivo
[2] = biological target: Epithelial discoidin domain-containing receptor 1 (Homo sapiens, UniProt Q08345); test: Inhibition of DDR1 (unknown origin) by DiscoverX KINOMEscan assay
[3] = biological target: Platelet-derived growth factor receptor beta (Homo sapiens, UniProt P09619); test: Inhibition of PDGFRB (unknown origin) by DiscoverX KINOMEscan assay
[4] = biological target: Proto-oncogene tyrosine-protein kinase receptor Ret (Mus musculus) (UniProt P35546); test: Inhibition of RET signalling pathway in mouse BaF3 cells harboring CCDC6-RET-V804M mutant assessed as suppression of SHC activation at 33.3 nM incubated for 4 hrs by Western blot analysis; format: cell-based
[5] = biological target: Proto-oncogene tyrosine-protein kinase receptor Ret (Mus musculus) (UniProt P35546); test: Inhibition of RET signalling pathway in mouse BaF3 cells harboring CCDC6-RET assessed as suppression of SHC activation at 33.3 nM incubated for 4 hrs by Western blot analysis; format: cell-based
[6] = Half life in Sprague-Dawley rat at 5 mg/kg, iv; format: ADME, organism-based; settings: in vivo
[7] = biological target: Mast/stem cell growth factor receptor Kit (Homo sapiens, UniProt P10721); test: Inhibition of KIT (unknown origin) by DiscoverX KINOMEscan assay
[8] = Cmax in fasted Sprague-Dawley rat at 25 mg/kg, po; format: ADME, organism-based; set-up: dose 25 mg/kg, route po; settings: in vivo
BaF3 [9] = test: cells; settings: Mus musculus, BaF3, 72 h
Description: Antiproliferative activity against mouse BaF3 cells incubated for 72 hrs by CCK8 assay

[10] = biological target: T1, Proto-oncogene tyrosine-protein kinase receptor Ret (Homo sapiens, UniProt P07949); test: Binding affinity to RET (unknown origin) assessed as dissociation constant in presence of ATP by FRET based Z'-Lyte assay
[11] = biological target: Epidermal growth factor receptor (Homo sapiens, UniProt P00533); test: Inhibition of EGFR (unknown origin) by DiscoverX KINOMEscan assay
[12] = biological target: Proto-oncogene tyrosine-protein kinase receptor Ret (Homo sapiens, UniProt P07949, V804M); test: Inhibition of RET V804M mutant (unknown origin) by DiscoverX KINOMEscan assay
[13] = Bioavailability in fasted Sprague-Dawley rat at 25 mg/kg, po; format: ADME, organism-based; settings: in vivo
[14] = AUC (0 to infinity) in fasted Sprague-Dawley rat at 25 mg/kg, po; format: ADME, organism-based; set-up: dose 25 mg/kg, route po; settings: in vivo
[15] = biological target: T1, Proto-oncogene tyrosine-protein kinase receptor Ret; test: Inhibition of RET (unknown origin) by DiscoverX KINOMEscan assay
[16] = AUC (0 to infinity) in Sprague-Dawley rat at 5 mg/kg, iv; format: ADME, organism-based; set-up: dose 5 mg/kg, route iv; settings: in vivo
BaF3 [17] = test: Antiproliferative activity against mouse BaF3 cells expressing CCDC6-RET-G810R incubated for 72 hrs by CCK8 assay; format: functional, cell-based; settings: BaF3, 72 h
[18] = Tmax in fasted Sprague-Dawley rat at 25 mg/kg, po; format: ADME, organism-based; settings: in vivo
[19] = biological target: Proto-oncogene tyrosine-protein kinase receptor Ret (Mus musculus) (UniProt P35546); test: Inhibition of RET signalling pathway in mouse BaF3 cells harboring CCDC6-RET-G810C mutant assessed as suppression of SHC activation incubated for 4 hrs by Western blot analysis; format: cell-based; settings: dose <= 300.0 nM
[20] = biological target: Vascular endothelial growth factor receptor 2 (Homo sapiens, UniProt P35968); test: Inhibition of VEGFR2 (unknown origin) by DiscoverX KINOMEscan assay
[21] = Cmax in Sprague-Dawley rat at 5 mg/kg, iv; format: ADME, organism-based; set-up: dose 5 mg/kg, route iv; settings: in vivo
[22] = biological target: Proto-oncogene tyrosine-protein kinase receptor Ret (Mus musculus) (UniProt P35546); test: Inhibition of RET signalling pathway in mouse BaF3 cells harboring CCDC6-RET assessed as suppression of RET phosphorylation at 33.3 nM incubated for 4 hrs by Western blot analysis; format: cell-based
[23] = biological target: Proto-oncogene tyrosine-protein kinase receptor Ret (Mus musculus) (UniProt P35546); test: Inhibition of RET signalling pathway in mouse BaF3 cells harboring CCDC6-RET-G810C mutant assessed as suppression of SHC activation at 33.3 nM incubated for 4 hrs by Western blot analysis; format: cell-based
[24] = biological target: Macrophage colony-stimulating factor 1 receptor (Homo sapiens, UniProt P07333); test: Inhibition of CSF1R (unknown origin) by DiscoverX KINOMEscan assay
BaF3 [25] = test: Antiproliferative activity against mouse BaF3 cells expressing CCDC6-RET-V804M incubated for 72 hrs by CCK8 assay; format: functional, cell-based; settings: BaF3, 72 h
[26] = biological target: Proto-oncogene tyrosine-protein kinase receptor Ret (Mus musculus) (UniProt P35546); test: Inhibition of RET signalling pathway in mouse BaF3 cells harboring CCDC6-RET-G810C mutant assessed as suppression of RET activation incubated for 4 hrs by Western blot analysis; format: cell-based; settings: dose <= 300.0 nM
[27] = biological target: Proto-oncogene tyrosine-protein kinase receptor Ret (Mus musculus) (UniProt P35546); test: Inhibition of RET signalling pathway in mouse BaF3 cells harboring CCDC6-RET-G810C mutant assessed as suppression of RET phosphorylation at 33.3 nM incubated for 4 hrs by Western blot analysis; format: cell-based
[28] = biological target: Proto-oncogene tyrosine-protein kinase receptor Ret (Mus musculus) (UniProt P35546); test: Inhibition of RET signalling pathway in mouse BaF3 cells harboring CCDC6-RET-V804M mutant assessed as suppression of RET phosphorylation at 33.3 nM incubated for 4 hrs by Western blot analysis; format: cell-based
BaF3 [29] = test: Antiproliferative activity against mouse BaF3 cells expressing CCDC6-RET-G810C incubated for 72 hrs by CCK8 assay; format: functional, cell-based; settings: BaF3, 72 h
BaF3 [30] = test: Antiproliferative activity against mouse BaF3 cells expressing CCDC6-RET incubated for 72 hrs by CCK8 assay; format: functional, cell-based; settings: BaF3, 72 h
BaF3 [31] = test: Antitumor activity against mouse BaF3 cells expressing CCDC6-RET-V804M xenografted in CB17-SCID mouse model assessed as tumor growth inhibition at 60 mg/kg, po qd via gavage for 14 days relative to control; format: functional; settings: BaF3, 336 h, time 14 day, read-out: TGI
[32] = Toxicity in CB17-SCID mouse model xenografted with mouse BaF3 cells expressing CCDC6-RET-V804M assessed as animal mortality at 30 to 60 mg/kg, po qd via gavage for 14 days; format: organism-based; settings: in vivo, 336 h, dose 30-60 mg/kg, time 14 day
[33] = Toxicity in CB17-SCID mouse model xenografted with mouse BaF3 cells expressing CCDC6-RET-V804M assessed as body weight loss at 30 to 60 mg/kg, po qd via gavage for 14 days; format: organism-based; settings: in vivo, 336 h, dose 30-60 mg/kg, time 14 day
BaF3 [34] = test: Antitumor activity against mouse BaF3 cells expressing CCDC6-RET-V804M xenografted in CB17-SCID mouse model assessed as tumor growth inhibition at 30 mg/kg, po qd via gavage for 14 days relative to control; format: functional; settings: BaF3, 336 h, time 14 day, read-out: TGI

Proto-oncogene tyrosine-protein kinase receptor Ret (Mus musculus), sequence (P35546 whole entry): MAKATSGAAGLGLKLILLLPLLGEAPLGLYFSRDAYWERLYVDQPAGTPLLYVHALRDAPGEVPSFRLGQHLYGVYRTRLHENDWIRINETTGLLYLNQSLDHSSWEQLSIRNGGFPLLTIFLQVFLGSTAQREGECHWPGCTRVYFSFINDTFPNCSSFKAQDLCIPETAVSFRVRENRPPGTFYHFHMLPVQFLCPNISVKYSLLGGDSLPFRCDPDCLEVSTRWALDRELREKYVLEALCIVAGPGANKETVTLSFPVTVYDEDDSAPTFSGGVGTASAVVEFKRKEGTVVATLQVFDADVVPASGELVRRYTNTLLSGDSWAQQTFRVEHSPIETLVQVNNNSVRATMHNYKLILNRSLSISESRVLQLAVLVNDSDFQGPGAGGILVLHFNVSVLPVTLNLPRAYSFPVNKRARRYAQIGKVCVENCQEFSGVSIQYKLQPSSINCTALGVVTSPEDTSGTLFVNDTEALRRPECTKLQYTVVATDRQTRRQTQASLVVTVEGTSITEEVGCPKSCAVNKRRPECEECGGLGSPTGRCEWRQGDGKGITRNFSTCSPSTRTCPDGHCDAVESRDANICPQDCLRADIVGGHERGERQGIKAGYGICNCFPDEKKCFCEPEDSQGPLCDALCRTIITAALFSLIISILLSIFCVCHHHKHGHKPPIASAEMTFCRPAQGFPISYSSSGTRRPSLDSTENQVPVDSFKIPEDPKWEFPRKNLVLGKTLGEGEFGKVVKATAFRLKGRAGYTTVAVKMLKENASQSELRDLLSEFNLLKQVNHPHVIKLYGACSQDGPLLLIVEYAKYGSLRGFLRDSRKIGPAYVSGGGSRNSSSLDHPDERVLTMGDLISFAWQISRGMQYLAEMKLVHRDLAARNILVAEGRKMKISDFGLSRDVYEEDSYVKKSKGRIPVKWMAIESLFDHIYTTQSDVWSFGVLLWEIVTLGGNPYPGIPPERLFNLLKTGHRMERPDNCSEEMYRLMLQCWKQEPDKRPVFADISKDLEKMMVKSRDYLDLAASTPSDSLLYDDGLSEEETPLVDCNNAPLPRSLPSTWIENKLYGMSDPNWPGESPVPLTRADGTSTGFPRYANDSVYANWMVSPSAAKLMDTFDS
T1 sequence (P07949 whole entry): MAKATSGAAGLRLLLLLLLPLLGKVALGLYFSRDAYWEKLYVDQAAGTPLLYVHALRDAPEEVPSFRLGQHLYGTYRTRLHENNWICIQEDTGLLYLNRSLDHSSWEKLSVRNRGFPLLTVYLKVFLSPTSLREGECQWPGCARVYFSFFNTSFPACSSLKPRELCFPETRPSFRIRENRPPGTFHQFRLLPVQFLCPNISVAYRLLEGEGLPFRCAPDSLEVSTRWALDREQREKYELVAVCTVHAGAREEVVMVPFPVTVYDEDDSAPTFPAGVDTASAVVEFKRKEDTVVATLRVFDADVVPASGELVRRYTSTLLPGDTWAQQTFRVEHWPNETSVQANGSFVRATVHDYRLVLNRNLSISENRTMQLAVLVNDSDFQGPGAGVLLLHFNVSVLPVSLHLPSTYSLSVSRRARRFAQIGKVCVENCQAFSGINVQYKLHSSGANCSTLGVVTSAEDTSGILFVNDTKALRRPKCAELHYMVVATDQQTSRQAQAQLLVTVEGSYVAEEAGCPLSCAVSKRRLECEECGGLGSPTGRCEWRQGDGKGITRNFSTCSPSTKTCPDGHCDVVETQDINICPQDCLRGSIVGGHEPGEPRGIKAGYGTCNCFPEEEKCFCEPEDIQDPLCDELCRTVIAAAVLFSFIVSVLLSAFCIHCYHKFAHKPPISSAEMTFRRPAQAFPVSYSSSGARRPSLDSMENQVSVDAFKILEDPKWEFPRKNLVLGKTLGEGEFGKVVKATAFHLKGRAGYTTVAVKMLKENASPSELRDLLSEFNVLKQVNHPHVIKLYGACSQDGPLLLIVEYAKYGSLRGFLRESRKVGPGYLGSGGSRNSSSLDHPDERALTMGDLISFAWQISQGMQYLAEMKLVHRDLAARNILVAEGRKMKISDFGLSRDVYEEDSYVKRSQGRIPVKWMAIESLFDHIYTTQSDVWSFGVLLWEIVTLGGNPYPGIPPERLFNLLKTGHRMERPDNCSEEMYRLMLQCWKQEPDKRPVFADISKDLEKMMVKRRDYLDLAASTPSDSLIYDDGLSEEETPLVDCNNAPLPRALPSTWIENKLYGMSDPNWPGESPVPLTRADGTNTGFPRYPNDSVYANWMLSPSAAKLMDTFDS
Epithelial discoidin domain-containing receptor 1, sequence (Q08345 whole entry, the tested form may be a part): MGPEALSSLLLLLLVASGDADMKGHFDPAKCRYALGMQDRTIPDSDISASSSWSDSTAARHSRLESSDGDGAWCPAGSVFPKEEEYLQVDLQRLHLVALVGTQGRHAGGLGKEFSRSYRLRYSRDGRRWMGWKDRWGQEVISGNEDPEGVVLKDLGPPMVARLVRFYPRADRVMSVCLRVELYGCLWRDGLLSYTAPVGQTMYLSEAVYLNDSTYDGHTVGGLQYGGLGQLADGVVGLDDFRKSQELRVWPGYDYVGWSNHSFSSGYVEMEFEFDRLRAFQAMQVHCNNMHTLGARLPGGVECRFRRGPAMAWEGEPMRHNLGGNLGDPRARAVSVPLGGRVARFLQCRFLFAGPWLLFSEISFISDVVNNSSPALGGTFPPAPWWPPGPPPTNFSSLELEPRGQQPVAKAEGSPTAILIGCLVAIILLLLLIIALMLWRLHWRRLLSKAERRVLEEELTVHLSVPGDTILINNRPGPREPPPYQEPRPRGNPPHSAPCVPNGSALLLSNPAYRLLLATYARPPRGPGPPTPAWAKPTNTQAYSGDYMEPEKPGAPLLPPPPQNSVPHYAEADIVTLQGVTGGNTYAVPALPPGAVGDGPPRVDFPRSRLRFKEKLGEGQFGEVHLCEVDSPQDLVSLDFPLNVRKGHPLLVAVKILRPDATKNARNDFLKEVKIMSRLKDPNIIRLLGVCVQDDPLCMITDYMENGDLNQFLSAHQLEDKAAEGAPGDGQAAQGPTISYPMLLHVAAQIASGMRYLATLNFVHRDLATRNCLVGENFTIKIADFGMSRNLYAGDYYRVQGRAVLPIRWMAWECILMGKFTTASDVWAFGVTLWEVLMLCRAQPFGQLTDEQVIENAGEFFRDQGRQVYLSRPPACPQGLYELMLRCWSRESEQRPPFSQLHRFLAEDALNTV
Platelet-derived growth factor receptor beta, sequence (P09619 whole entry): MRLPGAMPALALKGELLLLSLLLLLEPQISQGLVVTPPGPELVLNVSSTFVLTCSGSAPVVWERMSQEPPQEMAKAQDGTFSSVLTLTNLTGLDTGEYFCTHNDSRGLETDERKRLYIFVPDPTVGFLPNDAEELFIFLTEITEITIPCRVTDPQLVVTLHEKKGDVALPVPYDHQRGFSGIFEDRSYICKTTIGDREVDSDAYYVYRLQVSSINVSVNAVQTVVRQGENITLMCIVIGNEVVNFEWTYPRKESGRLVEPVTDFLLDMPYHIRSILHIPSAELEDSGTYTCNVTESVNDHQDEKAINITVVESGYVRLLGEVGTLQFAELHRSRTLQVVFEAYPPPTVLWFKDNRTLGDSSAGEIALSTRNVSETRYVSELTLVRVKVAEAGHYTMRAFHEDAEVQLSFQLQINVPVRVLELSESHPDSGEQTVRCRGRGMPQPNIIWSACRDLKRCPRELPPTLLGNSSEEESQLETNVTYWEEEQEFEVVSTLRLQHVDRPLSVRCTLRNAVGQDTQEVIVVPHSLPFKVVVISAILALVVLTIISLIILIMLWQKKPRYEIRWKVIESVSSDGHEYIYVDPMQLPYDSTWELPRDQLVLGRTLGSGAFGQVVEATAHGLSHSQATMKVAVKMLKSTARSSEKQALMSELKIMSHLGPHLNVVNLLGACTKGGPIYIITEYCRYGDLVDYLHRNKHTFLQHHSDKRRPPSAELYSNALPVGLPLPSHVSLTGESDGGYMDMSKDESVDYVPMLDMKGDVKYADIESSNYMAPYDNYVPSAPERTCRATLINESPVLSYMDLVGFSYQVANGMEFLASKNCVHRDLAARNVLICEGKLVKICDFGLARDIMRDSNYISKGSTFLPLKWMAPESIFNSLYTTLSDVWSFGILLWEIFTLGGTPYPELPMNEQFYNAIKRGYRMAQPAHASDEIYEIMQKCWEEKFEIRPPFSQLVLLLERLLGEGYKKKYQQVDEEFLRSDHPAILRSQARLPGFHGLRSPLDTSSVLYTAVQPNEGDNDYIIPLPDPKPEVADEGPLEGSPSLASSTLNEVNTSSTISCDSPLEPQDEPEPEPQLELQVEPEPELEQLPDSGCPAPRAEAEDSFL

SMILES	half-life [1]	IC50 [2]	IC50 [3]	inhibition [4]	inhibition [5]	half-life [6]	IC50 [7]	Cmax [8]	IC50 (BaF3 [9])	Kd [10]	IC50 [11]	IC50 [12]	bioavailability [13]	AUC(0-inf) [14]	IC50 [15]	AUC(0-inf) [16]	IC50 (BaF3 [17])	Tmax [18]	inhibition [19]	IC50 [20]	other results
CC(C)(C)c1cc(NC(=O)Nc2ccc(-c3cc(-c4ccc(OCCN5CCOCC5)cc4)[nH]n3)cc2)no1	6.9 h	0.009 µM	0.0244 µM	Active	Active	3.3 h	0.0216 µM	1250 ng/mL	1.23 µM	0.0043 µM	> 1 µM	0.0154 µM	23.6%	20500 ng·h/mL	0.0161 µM	15600 ng·h/mL	0.549 µM	6 h	Dose-Dependent Effect	0.331 µM	Cmax [21]: 10700 ng/mL; inhibition [22]: Active; inhibition [23]: Active; IC50 [24]: 0.033 µM; IC50 (BaF3 [25]): 0.0094 µM; inhibition [26]: Dose-Dependent Effect; inhibition [27]: Active; inhibition [28]: Active; IC50 (BaF3 [29]): 0.0898 µM; IC50 (BaF3 [30]): 0.0093 µM
CC(C)(c1cc(NC(=O)Nc2ccc(-c3cc(-c4ccc(OCCN5CCOCC5)cc4)[nH]n3)cc2)no1)C(F)(F)F	12.4 h	0.0666 µM	0.0163 µM	Active	Active	8.8 h	0.0451 µM	2060 ng/mL	3.87 µM	0.0065 µM	> 1 µM	0.0183 µM	21.1%	43800 ng·h/mL	0.0209 µM	32500 ng·h/mL	0.401 µM	6.7 h	Dose-Dependent Effect	0.38 µM	inhibition in vivo at 60 mg/kg (BaF3 [31]): 94.6%; Activity [32]: Non-Toxic; Cmax [21]: 9970 ng/mL; inhibition [22]: Active; inhibition [23]: Active; IC50 [24]: 0.108 µM; IC50 (BaF3 [25]): 0.0121 µM; inhibition [26]: Dose-Dependent Effect; inhibition [27]: Active; inhibition [28]: Active; IC50 (BaF3 [29]): 0.0846 µM; Activity [33]: Non-Toxic; IC50 (BaF3 [30]): 0.0136 µM; inhibition in vivo at 30 mg/kg (BaF3 [34]): 83.6%

Source: ChEMBL document CHEMBL5346912, “Discovery of 3,5-diaryl-1H-pyrazol-based ureas as potent RET inhibitors” (Eur J Med Chem, 2023)
